Values quoted from earlier work in PMC4287394 (Clinical cancer research : an official journal of the …, 2014).

Conditions: Phase I; cited from earlier work

SMILES	Observed DLTs	Hyperglycaemia	Patients with rash (all grades)	Patients with rash
Nc1cc(C(F)(F)F)c(-c2cc(N3CCOCC3)nc(N3CCOCC3)n2)cn1 [BKM120]	rash, hyperglycemia and mood alterations	–	–	–
COc1ccc(Cl)c(Nc2nc3ccccc3nc2NS(=O)(=O)c2cccc(NC(=O)C(C)(C)N)c2)c1 [SAR245408]	–	minimal hyperglycaemia	26%	–
C=CCN(/C=C1/C(=O)O[C@H](COC)[C@@]2(C)C1=C(O)C(=O)C1=C2[C@H](OC(C)=O)C[C@]2(C)C(=O)CC[C@@H]12)CC=C [PX-866]	–	minimal hyperglycaemia	–	none
